In PMC10004634 (PLOS ONE, 2023):

Key:
[1] = tested on: TMD8 subcutaneous xenograft; assay: TMD8 subcutaneous xenograft model, tumor volume; assay type: in vivo, mouse; settings: SCID mice; 1, 3, 10 mg/kg BID orally, 21 days
Method: The present study was conducted in compliance with the Guidance for Animal Experiments, the Ethical Standards for Experiments using Human Tissues, and the Standards for Safety Management of Pathogens established by Ono Pharmaceutical Co., Ltd. Female C.B-17/Icr-scid/scidJcl mice (hereafter referred to as severe combined immunodeficient [SCID] mice) were obtained from CLEA Japan, Inc. (Tokyo, Japan). The age at the beginning of the experiment was 6 weeks. To establish the TMD8 xenograft model, TMD8 cell suspension (0.1 mL, 1 × 10^8 cells/mL) was subcutaneously injected into the right flank of SCID mice under pentobarbital anesthesia. […] Tumor diameters and body weight were measured every 3 or 4 days after group assignment. The tumor growth inhibition rate (%) in the tirabrutinib-treated groups, versus the vehicle group, was calculated based on tumor volume. Statistical tests were performed with the SAS 9.2 (SAS Institute Japan Ltd., Tokyo, Japan) TS2M3-based EXSUS system version 7.7.1 (CAC Corporation, Tokyo, Japan). The Dunnett test was used to compare tumor volume in the tirabrutinib- and vehicle-treated groups, and linear regression analysis was used to study dose response in the tirabrutinib groups. The statistical tests were two-sided with a 5% significance level.

[2] = tested on: U-2932 cells; assay: SILAC phosphoproteomic analysis
Method: For differential SILAC encoding, both cells were grown in arginine- and lysine-deficient culture medium containing light (Arg0/Lys0) or heavy (Arg10/Lys8) isotopic forms of L-arginine and L-lysine (SILAC medium). […] For mass spectrometric analysis, phosphopeptide-enriched samples were loaded onto a reversed phase analytical column, resolved by an acetonitrile gradient using a nanoflow HPLC system and directly electrosprayed via a nanoelectrospray ion source into an LTQ-Orbitrap Velos mass spectrometer (Thermo Fisher Scientific). […] A false discovery rate (FDR) of 0.01 was selected for protein and peptide identification, and a posterior error probability of ≤0.1 for each peptide-to-spectral match was required. The resulting list of phosphosites exported from the MaxQuant software was filtered for class-I sites (only serine, threonine, or tyrosine assignments with a localization probability of ≥0.75) [33] and used for all subsequent biostatistical analysis. […] Gaussian regression analysis on the histogram plot of these log2-transformed ratios was performed using Sigmaplot (version 10.0; Systat Software Inc.). The obtained values for the mean and standard deviation across the whole quantitative dataset were used to determine thresholds for significant regulation of at least ±2.5 σ. […] Furthermore, only phosphosites conforming to this criterion and showing consistent regulation in both biological replicates were considered as regulated.

With `CC#CC(=O)N1CC[C@@H](n2c(=O)n(-c3ccc(Oc4ccccc4)cc3)c3c(N)ncnc32)C1` [Tirabrutinib] the “anti-tumor effect (tumor volume)” value [1] was “dose-dependent anti-tumor effect”, the “number of downregulated (suppressed) phosphorylation sites” value ([2]; 1 μM, 1 h, ratio <0.664) was 30 and the “number of upregulated (induced) phosphorylation sites” value ([2]; 1 μM, 1 h, ratio >1.506) was “four”. For the same molecule, the “Tirabrutinib/ctrl. rep. 1” value ([2]; AKT1S1 S88) was 1.16, the “Tirabrutinib/ctrl. rep. 2” value ([2]; AKT1S1 S88) was 1.03 and the “Tirabrutinib/ctrl. rep. 1” value ([2]; AKT1S1 S183) was 0.86. For the same molecule, the “Tirabrutinib/ctrl. rep. 2” value ([2]; AKT1S1 S183) was 0.93, the “Tirabrutinib/ctrl. rep. 2” value ([2]; AKT1S1 T97) was 0.84 and the “Tirabrutinib/ctrl. rep. 1” value ([2]; AKT1S1 T246) was 0.84. For the same molecule, the “Tirabrutinib/ctrl. rep. 2” value ([2]; AKT1S1 T246) was 0.87, the “Tirabrutinib/ctrl. rep. 2” value ([2]; AKT1 S124) was 0.96 and the “Tirabrutinib/ctrl. rep. 1” value ([2]; AKT2 S126) was 1.09. The “Tirabrutinib/ctrl. rep. 2” value ([2]; AKT2 S126) was 0.97, the “Tirabrutinib/ctrl. rep. 1” value ([2]; ATF2 S90) was 0.87 and the “Tirabrutinib/ctrl. rep. 2” value ([2]; ATF2 S90) was 0.93. The “Tirabrutinib/ctrl. rep. 1” value ([2]; ATF2 S112) was 1.02, the “Tirabrutinib/ctrl. rep. 2” value ([2]; ATF2 S112) was 1.00 and the “Tirabrutinib/ctrl. rep. 1” value ([2]; ATF2 T71) was 0.99. The “Tirabrutinib/ctrl. rep. 2” value ([2]; ATF2 T71) was 0.86, the “Tirabrutinib/ctrl. rep. 1” value ([2]; ATF2 T73) was 0.69 and the “Tirabrutinib/ctrl. rep. 2” value ([2]; CARD11 S483) was 1.78. For the same molecule, the “Tirabrutinib/ctrl. rep. 1” value ([2]; CARD11 S610) was 0.99, the “Tirabrutinib/ctrl. rep. 2” value ([2]; CARD11 S610) was 0.96 and the “Tirabrutinib/ctrl. rep. 1” value ([2]; CARD11 S903) was 1.10. The “Tirabrutinib/ctrl. rep. 2” value ([2]; CARD11 S903) was 1.31, the “Tirabrutinib/ctrl. rep. 1” value ([2]; CARD11 S910) was 1.78 and the “Tirabrutinib/ctrl. rep. 2” value ([2]; CARD11 S910) was 0.95. The “Tirabrutinib/ctrl. rep. 1” value ([2]; CARD11 S942) was 0.96, the “Tirabrutinib/ctrl. rep. 2” value ([2]; CARD11 S942) was 0.97 and the “Tirabrutinib/ctrl. rep. 1” value ([2]; ERF S21) was 0.26. For the same molecule, the “Tirabrutinib/ctrl. rep. 1” value ([2]; HSP27 S78) was 1.14, the “Tirabrutinib/ctrl. rep. 2” value ([2]; HSP27 S78) was 0.79 and the “Tirabrutinib/ctrl. rep. 1” value ([2]; HSP27 S82) was 1.09. For the same molecule, the “Tirabrutinib/ctrl. rep. 2” value ([2]; HSP27 S82) was 0.76, the “Tirabrutinib/ctrl. rep. 1” value ([2]; HSP27 S86) was 0.81 and the “Tirabrutinib/ctrl. rep. 2” value ([2]; HSP27 S86) was 1.16. The “Tirabrutinib/ctrl. rep. 1” value ([2]; IKBKB S550) was 0.86, the “Tirabrutinib/ctrl. rep. 2” value ([2]; IKBKB S550) was 0.97 and the “Tirabrutinib/ctrl. rep. 1” value ([2]; IKBKB S672) was 1.04. For the same molecule, the “Tirabrutinib/ctrl. rep. 2” value ([2]; IKBKB S672) was 1.20, the “Tirabrutinib/ctrl. rep. 1” value ([2]; IKBKG S455) was 1.15 and the “Tirabrutinib/ctrl. rep. 2” value ([2]; IKBKG S455) was 0.87. For the same molecule, the “Regulation of Phosphorylation Site” value ([2]; MAPK1 T185) was “↓”, the “Tirabrutinib/ctrl. rep. 1” value ([2]; MAPK1 T185) was 0.23 and the “Tirabrutinib/ctrl. rep. 2” value ([2]; MAPK1 T185) was 0.41. The “Regulation of Phosphorylation Site” value ([2]; MAPK1 Y187) was “↓”, the “Tirabrutinib/ctrl. rep. 1” value ([2]; MAPK1 Y187) was 0.23 and the “Tirabrutinib/ctrl. rep. 2” value ([2]; MAPK1 Y187) was 0.41. The “Tirabrutinib/ctrl. rep. 1” value ([2]; NHE1 S602) was 0.96, the “Tirabrutinib/ctrl. rep. 2” value ([2]; NHE1 S602) was 0.92 and the “Tirabrutinib/ctrl. rep. 1” value ([2]; NHE1 S605) was 0.95. For the same molecule, the “Tirabrutinib/ctrl. rep. 2” value ([2]; NHE1 S605) was 0.92, the “Tirabrutinib/ctrl. rep. 1” value ([2]; NHE1 S785) was 1.08 and the “Tirabrutinib/ctrl. rep. 2” value ([2]; NHE1 S785) was 1.26. The “Tirabrutinib/ctrl. rep. 1” value ([2]; NHE1 S796) was 0.80, the “Tirabrutinib/ctrl. rep. 2” value ([2]; NHE1 S796) was 0.78 and the “Tirabrutinib/ctrl. rep. 1” value ([2]; PEA15 S82) was 0.89. The “Tirabrutinib/ctrl. rep. 2” value ([2]; PEA15 S82) was 0.86, the “Tirabrutinib/ctrl. rep. 1” value ([2]; PEA15 S137) was 1.18 and the “Tirabrutinib/ctrl. rep. 2” value ([2]; PEA15 S137) was 1.03. For the same molecule, the “Tirabrutinib/ctrl. rep. 1” value ([2]; PIK3AP1 S642) was 1.22, the “Tirabrutinib/ctrl. rep. 2” value ([2]; PIK3AP1 S642) was 0.88 and the “Tirabrutinib/ctrl. rep. 1” value ([2]; PIK3AP1 T151) was 1.02. The “Tirabrutinib/ctrl. rep. 2” value ([2]; PIK3AP1 T151) was 1.07, the “Tirabrutinib/ctrl. rep. 1” value ([2]; PLCG2 S341) was 0.84 and the “Tirabrutinib/ctrl. rep. 2” value ([2]; PLCG2 S341) was 1.25. The “Tirabrutinib/ctrl. rep. 1” value ([2]; PLCG2 S871) was 0.99, the “Tirabrutinib/ctrl. rep. 2” value ([2]; PLCG2 S871) was 0.98 and the “Tirabrutinib/ctrl. rep. 1” value ([2]; PLCG2 S1236) was 1.17. For the same molecule, the “Tirabrutinib/ctrl. rep. 2” value ([2]; PLCG2 S1236) was 0.99, the “Tirabrutinib/ctrl. rep. 1” value ([2]; PRKCB T497) was 0.99 and the “Tirabrutinib/ctrl. rep. 2” value ([2]; PRKCB T497) was 1.00. For the same molecule, the “Tirabrutinib/ctrl. rep. 1” value ([2]; PRKCB T500) was 0.99, the “Tirabrutinib/ctrl. rep. 2” value ([2]; PRKCB T500) was 1.00 and the “Tirabrutinib/ctrl. rep. 1” value ([2]; PRKCB T641) was 1.02. For the same molecule, the “Tirabrutinib/ctrl. rep. 2” value ([2]; PRKCB T641) was 1.00, the “Tirabrutinib/ctrl. rep. 1” value ([2]; PRKD2 S189) was 0.90 and the “Tirabrutinib/ctrl. rep. 2” value ([2]; PRKD2 S189) was 0.70. For the same molecule, the “Tirabrutinib/ctrl. rep. 1” value ([2]; PRKD2 S206) was 0.86, the “Tirabrutinib/ctrl. rep. 2” value ([2]; PRKD2 S206) was 0.83 and the “Tirabrutinib/ctrl. rep. 1” value ([2]; PRKD2 S375) was 0.91. The “Tirabrutinib/ctrl. rep. 2” value ([2]; PRKD2 S375) was 0.81, the “Tirabrutinib/ctrl. rep. 1” value ([2]; PRKD2 S706) was 0.77 and the “Tirabrutinib/ctrl. rep. 2” value ([2]; PRKD2 S706) was 0.50. The “Tirabrutinib/ctrl. rep. 1” value ([2]; PRKD2 S710) was 0.90, the “Tirabrutinib/ctrl. rep. 2” value ([2]; PRKD2 S710) was 0.77 and the “Tirabrutinib/ctrl. rep. 2” value ([2]; PRKD3 S6) was 0.88. The “Tirabrutinib/ctrl. rep. 2” value ([2]; PRKD3 S27) was 0.99, the “Tirabrutinib/ctrl. rep. 1” value ([2]; PRKD3 S30) was 0.97 and the “Tirabrutinib/ctrl. rep. 1” value ([2]; PRKD3 S31) was 0.99. For the same molecule, the “Tirabrutinib/ctrl. rep. 2” value ([2]; PRKD3 S31) was 0.97, the “Tirabrutinib/ctrl. rep. 1” value ([2]; PRKD3 S44) was 1.09 and the “Tirabrutinib/ctrl. rep. 2” value ([2]; PRKD3 S44) was 1.04. For the same molecule, the “Tirabrutinib/ctrl. rep. 1” value ([2]; PRKD3 S213) was 1.29, the “Tirabrutinib/ctrl. rep. 2” value ([2]; PRKD3 S213) was 1.25 and the “Tirabrutinib/ctrl. rep. 2” value ([2]; PRKD3 S364) was 1.20. The “Tirabrutinib/ctrl. rep. 1” value ([2]; PRKD3 S376) was 0.80, the “Tirabrutinib/ctrl. rep. 2” value ([2]; PRKD3 S376) was 0.94 and the “Tirabrutinib/ctrl. rep. 1” value ([2]; PRKD3 S391) was 0.99. For the same molecule, the “Tirabrutinib/ctrl. rep. 2” value ([2]; PRKD3 S391) was 0.97, the “Tirabrutinib/ctrl. rep. 2” value ([2]; PRKD3 S543) was 1.05 and the “Tirabrutinib/ctrl. rep. 1” value ([2]; PRKD3 S731) was 0.72. For the same molecule, the “Tirabrutinib/ctrl. rep. 2” value ([2]; PRKD3 S731) was 0.48, the “Tirabrutinib/ctrl. rep. 1” value ([2]; PRKD3 S735) was 0.85 and the “Tirabrutinib/ctrl. rep. 2” value ([2]; PRKD3 S735) was 0.77. The “Tirabrutinib/ctrl. rep. 1” value ([2]; RAF1 S12) was 1.45, the “Tirabrutinib/ctrl. rep. 2” value ([2]; RAF1 S12) was 0.88 and the “Tirabrutinib/ctrl. rep. 2” value ([2]; RAF1 S316) was 0.94. The “Tirabrutinib/ctrl. rep. 1” value ([2]; RAF1 S377) was 0.98, the “Tirabrutinib/ctrl. rep. 2” value ([2]; RAF1 S377) was 1.08 and the “Tirabrutinib/ctrl. rep. 1” value ([2]; RAF1 S641) was 1.04. The “Tirabrutinib/ctrl. rep. 2” value ([2]; RAF1 S641) was 0.98, the “Tirabrutinib/ctrl. rep. 2” value ([2]; RAF1 T661) was 0.73 and the “Tirabrutinib/ctrl. rep. 1” value ([2]; RELA S238) was 1.26. For the same molecule, the “Tirabrutinib/ctrl. rep. 2” value ([2]; RELA S238) was 0.86, the “Tirabrutinib/ctrl. rep. 1” value ([2]; RPS6KA1 S230) was 0.99 and the “Tirabrutinib/ctrl. rep. 2” value ([2]; RPS6KA1 S230) was 0.99. The “Tirabrutinib/ctrl. rep. 1” value ([2]; RPS6KA1 S389) was 1.55, the “Tirabrutinib/ctrl. rep. 2” value ([2]; RPS6KA1 S389) was 1.00 and the “Tirabrutinib/ctrl. rep. 1” value ([2]; RPS6KA1 S741) was 1.16. The “Tirabrutinib/ctrl. rep. 2” value ([2]; RPS6KA1 S741) was 0.87, the “Tirabrutinib/ctrl. rep. 1” value ([2]; TSC2 S1132) was 1.15 and the “Tirabrutinib/ctrl. rep. 2” value ([2]; TSC2 S1132) was 0.89. The “Tirabrutinib/ctrl. rep. 1” value ([2]; TSC2 S1254) was 0.44, the “Tirabrutinib/ctrl. rep. 2” value ([2]; TSC2 S1254) was 0.70 and the “Tirabrutinib/ctrl. rep. 1” value ([2]; TSC2 S1336) was 1.59. For the same molecule, the “Tirabrutinib/ctrl. rep. 2” value ([2]; TSC2 S1336) was 1.33, the “Tirabrutinib/ctrl. rep. 1” value ([2]; TSC2 S1346) was 1.14 and the “Tirabrutinib/ctrl. rep. 2” value ([2]; TSC2 S1346) was 1.02. For the same molecule, the “Tirabrutinib/ctrl. rep. 1” value ([2]; TSC2 S1364) was 0.82, the “Tirabrutinib/ctrl. rep. 2” value ([2]; TSC2 S1364) was 0.98 and the “Tirabrutinib/ctrl. rep. 1” value ([2]; TSC2 S1385) was 1.01. For the same molecule, the “Tirabrutinib/ctrl. rep. 2” value ([2]; TSC2 S1385) was 1.30, the “Tirabrutinib/ctrl. rep. 1” value ([2]; TSC2 S1411) was 0.93 and the “Tirabrutinib/ctrl. rep. 2” value ([2]; TSC2 S1411) was 0.98. For the same molecule, the “Tirabrutinib/ctrl. rep. 2” value ([2]; TSC2 S1420) was 0.93, the “Tirabrutinib/ctrl. rep. 2” value ([2]; TSC2 S1448) was 1.43 and the “Tirabrutinib/ctrl. rep. 1” value ([2]; TSC2 S1449) was 1.16. The “Tirabrutinib/ctrl. rep. 1” value ([2]; TSC2 S1452) was 1.16, the “Tirabrutinib/ctrl. rep. 2” value ([2]; TSC2 S1452) was 1.04 and the “Tirabrutinib/ctrl. rep. 1” value ([2]; TSC2 S1798) was 0.76. For the same molecule, the “Tirabrutinib/ctrl. rep. 2” value ([2]; TSC2 S1798) was 0.73, the “Tirabrutinib/ctrl. rep. 2” value ([2]; YBX1 S2) was 0.99 and the “Tirabrutinib/ctrl. rep. 2” value ([2]; YBX1 S3) was 0.99. The “Tirabrutinib/ctrl. rep. 1” value ([2]; YBX1 S165) was 0.98, the “Tirabrutinib/ctrl. rep. 2” value ([2]; YBX1 S165) was 0.91 and the “Tirabrutinib/ctrl. rep. 1” value ([2]; YBX1 S167) was 0.91. The “Tirabrutinib/ctrl. rep. 2” value ([2]; YBX1 S167) was 1.13.
